Assay results: PMC6071317 (European journal of medicinal chemistry, 2017)

How the values were obtained:
purified α1β3γ2 GABAARs = purified α1β3γ2 GABAARs (Homo sapiens, UniProt P14867+P28472); format: binding; conditions: 3.5 μM [3H]azietomidate
[1] = biological target: purified human α1β3γ2 GABAA receptor (Homo sapiens, UniProt P14867+P28472); format: binding
[2] = biological target: human α1β3γ2 GABAA receptors (Homo sapiens, UniProt P14867+P28472); test: Modulation of [3H]muscimol binding to GABAA receptor membranes from HEK293 cells; conditions: 2 nM [3H]muscimol
human α1β3γ2 GABAA receptors, sequence (P14867 28-456): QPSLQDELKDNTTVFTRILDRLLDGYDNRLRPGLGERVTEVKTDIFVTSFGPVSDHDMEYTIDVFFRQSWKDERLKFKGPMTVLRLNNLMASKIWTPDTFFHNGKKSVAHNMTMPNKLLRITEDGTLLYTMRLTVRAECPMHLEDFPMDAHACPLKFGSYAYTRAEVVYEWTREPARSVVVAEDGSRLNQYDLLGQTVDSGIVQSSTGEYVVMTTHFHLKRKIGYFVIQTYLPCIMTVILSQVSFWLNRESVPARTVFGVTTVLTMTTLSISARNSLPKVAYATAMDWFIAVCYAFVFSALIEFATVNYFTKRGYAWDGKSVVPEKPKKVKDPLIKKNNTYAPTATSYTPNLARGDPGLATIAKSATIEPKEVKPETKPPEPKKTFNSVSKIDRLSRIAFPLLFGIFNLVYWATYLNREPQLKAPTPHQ
human α1β3γ2 GABAA receptors, sequence (P28472 26-473): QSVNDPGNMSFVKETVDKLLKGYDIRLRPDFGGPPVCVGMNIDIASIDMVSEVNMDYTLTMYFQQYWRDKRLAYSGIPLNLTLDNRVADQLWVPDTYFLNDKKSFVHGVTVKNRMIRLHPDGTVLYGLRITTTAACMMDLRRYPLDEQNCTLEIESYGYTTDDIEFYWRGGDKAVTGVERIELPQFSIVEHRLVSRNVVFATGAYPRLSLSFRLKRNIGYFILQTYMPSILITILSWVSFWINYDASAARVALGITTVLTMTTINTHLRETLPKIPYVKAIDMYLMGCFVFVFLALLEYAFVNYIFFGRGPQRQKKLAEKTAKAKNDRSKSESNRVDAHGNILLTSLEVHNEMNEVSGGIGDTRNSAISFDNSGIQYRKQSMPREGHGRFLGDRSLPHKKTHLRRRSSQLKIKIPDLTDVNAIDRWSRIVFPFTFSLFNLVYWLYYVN
human α1β3γ2 GABAA receptors, sequence (P18507 40-475 partner): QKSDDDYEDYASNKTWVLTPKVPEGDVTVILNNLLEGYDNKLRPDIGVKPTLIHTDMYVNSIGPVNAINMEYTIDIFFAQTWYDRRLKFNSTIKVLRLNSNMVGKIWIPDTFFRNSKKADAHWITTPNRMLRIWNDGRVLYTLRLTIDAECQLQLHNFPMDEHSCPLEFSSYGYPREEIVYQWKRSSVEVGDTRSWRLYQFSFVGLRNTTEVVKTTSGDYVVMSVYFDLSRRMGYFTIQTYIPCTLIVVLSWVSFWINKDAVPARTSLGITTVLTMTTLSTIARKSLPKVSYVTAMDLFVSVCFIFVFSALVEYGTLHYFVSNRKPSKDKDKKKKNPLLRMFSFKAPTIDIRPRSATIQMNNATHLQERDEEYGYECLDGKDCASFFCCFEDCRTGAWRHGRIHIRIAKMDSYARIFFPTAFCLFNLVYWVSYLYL

GABAAR = conditions: read-out: Potentiation EC50; bulk phase concentration; cited from earlier work
Partition coefficient = format: physicochemical; conditions: difference to alphaxalone

purified human α1β3γ2 GABAA receptor, sequence (P14867 28-456): as the sequence (P14867 28-456) above
purified human α1β3γ2 GABAA receptor, sequence (P28472 26-473): as the sequence (P28472 26-473) above
purified human α1β3γ2 GABAA receptor, sequence (P18507 40-475 partner): as the sequence (P18507 40-475 partner) above
purified α1β3γ2 GABAARs, sequence (P14867 28-456): as the sequence (P14867 28-456) above
purified α1β3γ2 GABAARs, sequence (P28472 26-473): as the sequence (P28472 26-473) above
purified α1β3γ2 GABAARs, sequence (P18507 40-475 partner): as the sequence (P18507 40-475 partner) above

Question: Which α-subunits photolabeled (purified α1β3γ2 GABAARs) does the source give for `CC(c1ccccc1)n1cncc1C(=O)OCCC1(C)N=N1` (stereo not drawn) [[^3H]azietomidate, reference compound] here?
Answer: 10%

Question: And the “Pharmacologically specific subunit photolabeling (inhibitable by etomidate)” value ([1]; [3H]azietomidate subunit photolabeling)?
Answer: 80%

Question: Which “Enhancement of photolabeling by both probes ([3H]azietomidate, [3H]R-mTFD-MPAB)” value ([1]; 0.3 and 1 μM) does the source give for `CC(=O)[C@H]1CC[C@H]2[C@@H]3CC[C@H]4C[C@H](O)CC[C@]4(C)[C@H]3C3(C[C@]12C)N=N3` [11-aziAP, 11-Aziallopregnanolone] here?
Answer: to the same extent as GABA or alphaxalone

Question: And the “Efficacy of modulation of [3H]muscimol binding” value [2]?
Answer: 227 ± 2%

Question: What about the “Hill coefficient of enhancement of [3H]muscimol binding” value [2] of the same molecule?
Answer: 1.1 ± 0.2

Question: For `CC(=O)[C@H]1CC[C@H]2[C@@H]3CC[C@H]4C[C@H](O)CC[C@]4(C)[C@H]3C(=O)C[C@]12C` [alphaxalone, Alphaxalone], which EC50 (GABAAR) is on record?
Answer: 600 nM

Question: For `CC(=O)[C@H]1CC[C@H]2[C@@H]3CC[C@H]4C[C@H](O)CC[C@]4(C)[C@H]3[C@@H](OC(=O)c3c(F)c(F)c(N=[N+]=[N-])c(F)c3F)C[C@]12C` [F4N3Bzox-AP, 11β-(4-Azido-2,3,5,6-tetrafluorobenzoyloxy)-3α-hydroxy-5α-pregnane-20-one], which “Higher lipophilicity as compared to alphaxalone” value (Partition coefficient) is on record?
Answer: ca. 1.5 log P units

Question: What about the “Efficacy of modulation of [3H]muscimol binding” value [2] of the same molecule?
Answer: 228 ± 4%

Question: What about the “Hill coefficient of enhancement of [3H]muscimol binding” value [2] of the same molecule?
Answer: 1.9 ± 0.1
